Source: patent publication US9233933B2, “4,4-disubstituted-1,4-dihydropyrimidines and the use thereof as medicaments for the treatment of hepatitis B” (priority 2012, dated 2016)
Where two headings read alike, the source gives them in different places.

Key:
[1] = Cytotoxicity in HepG2 cells using CellTiter-Blue, same incubation period as HepG2.2.15 assay; type: cell-based; details: human
Method: Cytotoxicity of the compounds was tested in HepG2 cells using CellTiter-Blue, with the same incubation period and dose range as in the HepG2.2.15 assay.

HBV [2] = test: anti-HBV activity in stable transfected HepG2.2.15 cell line, HBV DNA from secreted virions by realtime PCR; type: cell-based, Hepatitis B virus; details: read-out: HBV-HepG2 2.15 EC50
HBV [3] = test: anti HBV activity in HepG2.117 cell line (Tet-off, inducibly HBV producing), intracellular HBV DNA by realtime PCR; type: cell-based, Hepatitis B virus; details: read-out: HepG2 117 EC50
[4] = Cytotoxicity in HepG2 cells incubated 4 days, Resazurin assay; details: human, HepG2 4 days CC50, HepG2 cells
[5] = HepG2 cells, 6 days, CellTiter-Blue, read-out: HepG2 6 days CC50
[6] = Hepatitis B virus, HepG2.2.15, 144 h, HepG2.2.15 cells, 6 days of treatment, secreted virion HBV DNA
[7] = Hepatitis B virus, HepG2.117, 72 h
[8] = Hepatitis B virus, HepG2.2.15, 144 h
[9] = HepG2.117 cells, 3 days of treatment, intracellular HBV DNA
[10] = HepG2.2.15 cells, 6 days of treatment, secreted virion HBV DNA
[11] = Hepatitis B virus, HepG2.117, 72 h, HepG2.117 cells, 3 days of treatment, intracellular HBV DNA

Structure (SMILES)	CC50 at 6 days [1, 5] [µM]	EC50 (HBV [2]; [6]) [µM]	CC50 at 4 days [4] [µM]	EC50 (HBV [3]; [11]) [µM]	other results
N#CC1=C(CN2CCOCC2)NC(c2ccccn2)=NC12CCCc1ccccc12 (stereo not drawn) [Compound 61]	> 100	18	–	–	–
COC(=O)C1=C(C)NC(c2ccc(F)cn2)=NC1(C)c1ccc(F)c(F)c1 (stereo not drawn) [Compound 133]	–	–	> 25	–	EC50 (HBV [3]; [7]): 4.33 µM; EC50 (HBV [2]; [8]): 17.3 µM
COC(=O)C1=C(C)NC(c2ncc(F)cc2F)=NC1(c1ccc(F)c(F)c1)C(F)F (single isomer, unassigned) [Compound 151a]	–	–	> 25	–	EC50 (HBV [3]; [9]): > 25 µM; EC50 (HBV [2]; [10]): > 100 µM
COC(=O)C1=C(CN2CCOCC2)NC(c2ncc(F)cc2F)=NC1(C)c1ccc(F)c(Cl)c1 (stereo not drawn) [Compound 150]	–	1.35	> 25	0.694	–
COC(=O)C1=C(C)NC(c2ncc(F)cc2F)=NC1(C)c1ccc(F)c(F)c1 (stereo not drawn) [132b (−)-camphanic acid]	–	–	–	–	EC50 (HBV [2]; [10]): 0.489 µM
N#CC1=C(CN2CCOCC2)NC(c2ccccn2)=NC12CCCc1cc(F)ccc12 (single isomer, unassigned) [Compound 60a]	> 100	–	> 100	–	EC50 (HBV [3]; [9]): > 100 µM; EC50 (HBV [2]; [10]): > 100 µM
CCOC(=O)C1=C(CN2CCOCC2)NC(c2ccccn2)=NC1(C)c1ccc(F)cc1Cl (stereo not drawn) [Compound 41]	> 50	7.39	> 25	4.5	–
COC(=O)C1=C(C)NC(c2ncc(F)cc2F)=NC1(C)c1ccc(F)cc1 (stereo not drawn) [Compound 128]	63.8	9.1	> 50	2.47	–
COC(=O)C1=C(C)NC(c2cnccn2)=NC1(C)c1ccc(F)c(F)c1 (stereo not drawn) [Compound 161]	–	–	–	> 25	–
COC(=O)C1=C(CN2CCOCC2)NC(c2ncc(F)cc2F)=NC1(C)c1cc(F)cc(Cl)c1 (stereo not drawn) [Compound 27]	> 100	1.83	> 25	0.63	–
COC(=O)C1=C(C)NC(c2ncc(F)cc2F)=NC1(C)c1ccc(F)c(C)c1 (stereo not drawn) [Compound 149]	–	23.8	> 25	3.26	–
COC(=O)C1=C(C)NC(c2ncccn2)=NC1(C)c1ccc(F)c(F)c1 (single isomer, unassigned) [Compound 159a]	–	–	> 25	25	EC50 (HBV [2]; [10]): 37.5 µM
COC(=O)C1=C(C)NC(c2ncc(F)cc2F)=NC1(C)c1ccc(F)c(F)c1 (stereo not drawn) [Compound 132b]	–	–	> 25	–	EC50 (HBV [3]; [7]): 0.474 µM; EC50 (HBV [2]; [8]): 0.784 µM
COC(=O)C1=C(C#N)NC(c2ncc(F)cc2F)=NC1(C)c1ccc(F)c(F)c1 (single isomer, unassigned) [Compound 163a]	–	69.5	> 25	> 25	–
COC(=O)C1=C(C)NC(c2ncc(F)cc2F)=NC1(C)c1ccc(F)c(Cl)c1 (stereo not drawn) [Compound 148]	–	–	17.2	> 25	–
CCOC(=O)C1=C(CN2CCOCC2)NC(c2ccccn2)=NC1(C)c1ccc(F)cc1 (racemic) [Compound 4]	51.1	–	> 25	0.66	EC50 (HBV [2]; [10]): 1.92 µM
COC(=O)C1=C(C)NC(c2ncc(F)cc2F)=NC1(C)c1ccc(Cl)c(F)c1 (stereo not drawn) [Compound 156]	–	1.11	> 25	0.669	–
COC(=O)C1=C(C)NC(c2nccs2)=NC1(C)c1ccc(F)c(F)c1 (single isomer, unassigned) [Compound 155b]	–	–	–	–	EC50 (HBV [3]; [9]): > 25 µM; EC50 (HBV [2]; [10]): > 100 µM
COC(=O)C1=C(CN2CCOCC2)NC(c2ccccn2)=NC1(C)c1ccc(F)cc1 (stereo not drawn) [Compound 2]	> 100	0.669	> 50	0.25	–
COC(=O)C1=C(C)NC(SC)=NC1(C)c1ccc(F)c(F)c1 (single isomer, unassigned) [Compound 160a]	–	–	> 25	–	EC50 (HBV [3]; [9]): > 25 µM; EC50 (HBV [2]; [10]): > 50 µM
CCOC(=O)C1=C(CN2CCOCC2)NC(c2ccccn2)=NC1(C)c1ccc(F)c(Cl)c1 (stereo not drawn) [Compound 18]	36.5	3.92	> 50	1.6	–
COCC1=C(C(=O)OC)C(C)(c2ccc(F)c(F)c2)N=C(c2ncc(F)cc2F)N1 (stereo not drawn) [Compound 152]	–	3.38	> 25	2.88	–
COC(=O)C1=C(C)NC(c2nccs2)=NC1(C)c1ccc(F)c(F)c1 (single isomer, unassigned) [Compound 155a]	–	–	–	17.1	EC50 (HBV [2]; [10]): 0.983 µM
CCOC(=O)C1=C(C(F)(F)C(F)(F)F)NC(c2ccccn2)=NC1(C)c1ccc(F)cc1 (stereo not drawn) [Compound 11]	> 100	> 100	–	–	–
CCOC(=O)C1=C(C(F)(F)F)NC(c2ccccn2)=NC1(C)c1ccc(F)cc1 (stereo not drawn) [Compound 10]	> 10	> 10	> 10	> 10	–

Structure (SMILES)	CC50 at 6 days [1, 5] [µM]	EC50 (HBV [2]; [6]) [µM]	CC50 at 4 days [4] [µM]	EC50 (HBV [3]; [11]) [µM]	other results
COC(=O)C1=C(C)NC(SC)=NC1(C)c1ccc(F)c(F)c1 (racemic) [Compound 160]	–	0.717	> 25	23.7	–
C=CC1=C(C(=O)OC)C(C)(c2ccc(F)c(F)c2)N=C(c2ncc(F)cc2F)N1 (stereo not drawn) [Compound 153]	–	12.9	> 25	3.31	–
CCOC(=O)C1=C(C#N)NC(c2ccccn2)=NC1(C)c1ccc(F)cc1 (stereo not drawn) [Compound 5]	> 100	> 100	–	–	–
CCOC(=O)C1=C(CN2CCCCC2)NC(c2ccccn2)=NC1(C)c1ccc(F)cc1 (stereo not drawn) [Compound 9]	62.4	> 100	–	–	–
COC/C=C/C1=C(C(=O)OC)C(C)(c2ccc(F)c(F)c2)N=C(c2ncc(F)cc2F)N1 (stereo not drawn) [Compound 147]	–	2.73	> 25	3.17	–
COC(=O)C1=C(C2CC2)NC(c2ncc(F)cc2F)=NC1(C)c1ccc(F)c(F)c1 (stereo not drawn) [Compound 142]	–	11.5	> 25	3.37	–
CCOC(=O)C1=C(CN2CCSCC2)NC(c2ccccn2)=NC1(C)c1ccc(F)cc1 (stereo not drawn) [Compound 8]	54.3	14.8	> 50	3.3	–
N#CC1=C(CN2CCOCC2)NC(c2ccccn2)=NC12CCc1ccccc12 (stereo not drawn) [Compound 76]	> 100	8.48	> 100	3.65	–
COC(=O)C1=C(C)NC(c2ncccc2F)=NC1(C)c1ccc(F)c(F)c1 (racemic) [Compound 158]	–	–	> 25	4.56	–
CCOC(=O)C1=C(CN2CCCC2)NC(c2ccccn2)=NC1(C)c1ccc(F)cc1 (stereo not drawn) [Compound 7]	13.4	> 100	–	–	–
COC(=O)C1=C(C)NC(c2ncc(F)cc2F)=NC1(C)c1ccc(F)c(F)c1 (single isomer, unassigned) [Compound 132a]	–	> 100	21.1	> 25	–
COC(=O)C1=C(CN2CCOCC2)NC(c2ccccn2)=NC1(C)c1cc(F)cc(Cl)c1 (stereo not drawn) [Compound 29]	47.4	6.32	> 25	3	–
COC(=O)C1=C(C)NC(c2nccs2)=NC1(C)c1ccc(F)c(F)c1 (racemic) [Compound 155]	–	0.744	–	14	–
N#CC1=C(CN2CCOCC2)NC(c2ccccn2)=NC12CCCc1ccc(F)cc12 (stereo not drawn) [Compound 58]	> 100	> 100	> 25	> 25	–
CCOC(=O)C1=C(C)NC(c2ccccn2)=NC1(C)c1ccc(F)cc1 (stereo not drawn) [Compound 6]	> 25	> 25	–	–	–
COC(=O)C1=C(C)NC(c2ccccn2)=NC1(C)c1cccc(F)c1 (stereo not drawn) [Compound 31]	> 100	–	> 50	–	EC50 (HBV [3]; [7]): 40.6 µM; EC50 (HBV [2]; [8]): 72.4 µM
CCOC(=O)C1=C(CN2CCOCC2)NC(c2ncc(F)cc2F)=NC1(C)c1ccc(F)cc1 (stereo not drawn) [Compound 24]	37.9	0.319	> 25	0.16	–
COC(=O)C1=C(C)NC(c2nccn2C)=NC1(C)c1ccc(F)c(F)c1 (stereo not drawn) [Compound 162]	–	> 25	> 25	> 25	–
COC(=O)C1=C(C)NC(c2ncccc2F)=NC1(C)c1ccc(F)c(F)c1 (single isomer, unassigned) [Compound 158a]	–	–	> 25	–	EC50 (HBV [3]; [9]): 2.44 µM
CCOC(=O)C1=C(C)NC(c2ccccn2)=NC1(c1ccc(F)cc1)C(F)(F)F (stereo not drawn) [Compound 35]	68.1	> 100	–	–	–
CCOC(=O)C1=C(C)NC(c2nccs2)=NC1(C)c1ccc(F)c(Cl)c1 (stereo not drawn) [Compound 21]	17.5	12.7	–	–	–
COC(=O)C1=C(C)NC(c2ncc(F)cc2F)=NC1(C)c1ccc(C)c(F)c1 (stereo not drawn) [Compound 157]	–	9.52	> 25	3.06	–
COC(=O)C1=C(C)NC(c2ncc(F)cc2C)=NC1(C)c1ccc(F)c(F)c1 (stereo not drawn) [Compound 154]	–	27.5	> 25	17.6	–
COC(=O)C1=C(C)NC(c2ncc(F)cc2C)=NC12CCCc1cc(F)ccc12 (stereo not drawn) [Compound 81]	–	19.9	–	–	CC50 at 6 days ([1]; HepG2 6 days CC50): > 50 µM
CCOC(=O)C1=C(C)NC(c2ccccn2)=NC12CCc1cc(F)ccc12 (stereo not drawn) [Compound 40]	–	14	–	–	CC50 at 6 days ([1]; HepG2 6 days CC50): 77 µM
